Source: patent US10517835B2, “Composition and methods of treatment” (Blueberry Therapeutics Limited, priority 2015, dated 2019)
“Also recorded” adds a separate entry of the source. Where a name gives a salt, the structure may show the parent alone.

What was measured:
[1] = Nanoparticle formation, number and size on Malvern Instruments Nanosight LM10; assay type: physicochemical; settings: 0.1 mg/ml terbinafine in 30% ethanol, with or without 0.3 mg/ml PHMB, room temperature at least 24 hours; for particle number: hydrochloride
Method: Terbinafine was mixed at 0.1 mg/ml in 30% ethanol and incubated at room temperature for at least 24 hours up to a maximum of 47 days. Another formulation was prepared by mixing terbinafine at 0.1 mg/ml in 30% ethanol and then adding PHMB to 0.3 mg/ml. The formulation was incubated at room temperature for at least 24 hours up to a maximum of 112 days. The number and size of any nanoparticles formed were measured using a Malvern Instruments Nanosight LM10.

[2] = system: Trychophyton mentagrophytes; assay: Paper disk zone of clearance assay on YEPD agar; assay type: cell-based; settings: 4 days 30° C.
Method: The antifungal activity of a range of concentrations of terbinafine, encompassing the concentrations range passing through the nails in the Franz cells, was tested. Terbinafine was diluted to the following concentrations in double distilled water: 60, 6, 0.6 and 0.06 μg/ml. 40 μl of each terbinafine solution and double distilled water alone was spotted onto a 10 mm sterile 3 MM paper disk. Each disk was placed on a lawn of Trychophyton mentagrophytes plated on yeast extract peptone dextrose (YEPD) agar plates. T. mentagrophytes was used as a laboratory fungal strain due to its relevance to key pathogenic species in onychomycosis (fungal nail infection). The agar plates were inverted and incubated at 30° C. for 4 days. The plates were photographed and analysed for zones of clearance, which indicate antifungal activity.

In the case of CN(C/C=C/C#CC(C)(C)C)Cc1cccc2ccccc12 [terbinafine, terbinafine hydrochloride], the particle size range [1] is reported as 50-800 nm, the particle number [1] is reported as 0.5×10^8 particles/ml and the particle number ([1]; listed as terbinafine alone) is reported as “Approximately 0.5×10^8 particles/ml”. The zone of clearance ([2]; 40 μl of 0.06 μg/ml solution on 10 mm disk) was “no zone of clearance”, the zone of clearance ([2]; 40 μl of 0.6 μg/ml solution on 10 mm disk, hydrochloride) was “clear zones of clearance; also recorded: Progressively smaller zones of clearance” and the zone of clearance ([2]; 40 μl of 6 μg/ml solution on 10 mm disk, hydrochloride) was “clear zones of clearance; also recorded: Progressively smaller zones of clearance”. For the same molecule, the zone of clearance ([2]; 40 μl of 60 μg/ml solution on 10 mm disk, hydrochloride) was “clear zones of clearance; also recorded: largest zone of clearance”.
